How the values were obtained:
Type in all cases: cell-based
MV-4-11 = assay: Proliferation inhibition (CellTiter-Glo) in MV-4-11 cells; conditions: Homo sapiens, MV4-11, 96 h, MV-4-11 AML cells, homozygous FLT3-ITD, IC50 (4 days)
Description: (§1) The Proliferation Inhibitory Effect was Investigated in Human AML Cell Lines MOLM-13 (AddexBio: C0003003) [REF: Pubmed: 9305600] and MV-4-11 (ATCC: CRL-9591) [REF PMID: 3496132], and CML cell line […] (ATCC: CRL-3343) [REF PMID: 163658]. Molm-13 is heterozygous for FLT3-ITD mutation, while MV4-11 is homozygous for FLT3-ITD [PMID: 12529668]. […] Cells were maintained in RPMI-1640 medium (ThermoFisher catalog no. 61870036) supplemented with 10% of Heat Inactivated FBS (ThermoFisher catalog no.A31605) and 1% Pen-Strep (Thermofisher catalog no. 10378016) and cultured at 37° C. in a humidified incubator with 5% CO2. Cell lines were […], and the cells were maintained in a range 70%-80% confluency.
(§2) ATP is present in all metabolically active cells and is considered as a marker for cell viability and proliferation. Metabolic cell activity was determined using the CellTiter-Glo kit (Promega catalog no. G7572), an ATP monitoring system based on the production of luminescence by the reaction of ATP with added UltraGlo® recombinant luciferase (Kawano et al., 2016, PLOS One, 8; 11(7):e0158888), according to the supplier's experimental recommendations. The assay was based on a 96 well plate format.
(§3) Test compounds were dissolved at 10 mM in DMSO (Sigma catalog no. D8418; purity 299.9%) and stored at −20° C. Eight concentrations of test compound were assessed in duplicate in an individual test occasion in parallel in the selected cell lines. Gilteratinib and FF-10101 were used as reference compounds and tested in duplicate at eight concentrations. 100% of proliferation is represented by the untreated cells (0.2% DMSO).
(§4) On the day of the experiment (TO), cells were quantified with the cell viability analyser NucleoCounter (Chemometec NC-200) and diluted with fresh medium to obtain the cell density of about 10,000 cells per 200 μL medium. 200 μL of cell suspension were added into wells in the 96 well plate.
(§5) After 2 hours from seeding cells, compounds were added using a D300e compound dispenser (Life Sciences Tecan D300) at desired concentrations with shaking between each compound dispensed. Cell plates containing 200 μL/well suspension were incubated at 37° C. in a humidified incubator with […].
(§6) […] Contents were mixed for 5 min on an orbital shaker to induce cell lysis, and then incubated at room temperature for an additional 10 min in the dark to stabilize the luminescent signal. Luminescence was read by using a GloMax GM300 plate reader (Promega) using the luminescence for 96 well plate standard protocol.
(§7) Results were analysed by GraphPad (Prism) and IC50 values were calculated by non-linear regression using four parameter-logistic equation.

K-562 = assay: Proliferation inhibition (CellTiter-Glo) in K-562 cells; conditions: Homo sapiens, K562, 96 h, K-562 CML cells, no FLT3 mutations, IC50 (4 days)
Description: as §1, §2, §3, §4, §5, §6, §7

MOLM-13 = assay: Proliferation inhibition (CellTiter-Glo) in MOLM-13 cells; conditions: Homo sapiens, 96 h, MOLM-13 AML cells, heterozygous FLT3-ITD, IC50 (4 days)
Description: as §1, §2, §3, §4, §5, §6, §7

Row | Structure (SMILES) | IC50 (MV-4-11) [nM] | IC50 (K-562) [nM] | IC50 (MOLM-13) [nM]
1 | C=CC(=O)NCCCCOc1cccc(Nc2nc(NC3CCOCC3)c(CC)nc2C(N)=O)c1 [Compound 1, 3-((3-(4-Acrylamidobutoxy)phenyl)amino)-6-ethyl-5-((tetrahydro-2H-pyran-4-yl)amino)pyrazine-2-carboxamide] | 10 to 100 | > 500 | 100 to 500
2 | C=CS(=O)(=O)NCCCCOc1cccc(Nc2nc(NC3CCOCC3)c(CC)nc2C(N)=O)c1 [Compound 2, 6-Ethyl-5-((tetrahydro-2H-pyran-4-yl)amino)-3-((3-(4-(vinylsulfonamido)butoxy)phenyl)amino)pyrazine-2-carboxamide] | 100 to 500 | > 500 | 100 to 500
3 | C#CC(=O)NCCCCOc1cccc(Nc2nc(NC3CCOCC3)c(CC)nc2C(N)=O)c1 [Compound 5, 6-Ethyl-3-((3-(4-propiolamidobutoxy)phenyl)amino)-5-((tetrahydro-2H-pyran-4-yl)amino)pyrazine-2-carboxamide] | 10 to 100 | > 500 | 10 to 100
4 | CC#CC(=O)NCCCCOc1cccc(Nc2nc(NC3CCOCC3)c(CC)nc2C(N)=O)c1 [Compound 6, 3-((3-(4-(But-2-ynamido)butoxy)phenyl)amino)-6-ethyl-5-((tetrahydro-2H-pyran-4-yl)amino)pyrazine-2-carboxamide] | 100 to 500 | > 500 | 100 to 500
5 | C=CC(=O)NCCC#Cc1cccc(Nc2nc(NC3CCOCC3)c(CC)nc2C(N)=O)c1 [Compound 11, 3-((3-(4-Acrylamidobut-1-yn-1-yl)phenyl)amino)-6-ethyl-5-((tetrahydro-2H-pyran-4-yl)amino)pyrazine-2-carboxamide] | 10 to 100 | > 500 | 10 to 100
6 | C=CS(=O)(=O)NCCC#Cc1cccc(Nc2nc(NC3CCOCC3)c(CC)nc2C(N)=O)c1 [Compound 12, 6-ethyl-5-((Tetrahydro-2H-pyran-4-yl)amino)-3-((3-(4-(vinylsulfonamido)but-1-yn-1-yl)phenyl)amino)pyrazine-2-carboxamide] | 100 to 500 | > 500 | > 500
7 | CC#CC(=O)NCC#Cc1cccc(Nc2nc(NC3CCOCC3)c(CC)nc2C(N)=O)c1 [Compound 14, 3-((3-(3-(But-2-ynamido)prop-1-yn-1-yl)phenyl)amino)-6-ethyl-5-((tetrahydro-2H-pyran-4-yl)amino)pyrazine-2-carboxamide] | 10 to 100 | > 500 | 10 to 100
8 | C#CC(=O)NCCC#Cc1cccc(Nc2nc(NC3CCOCC3)c(CC)nc2C(N)=O)c1 [Compound 15, 6-Ethyl-3-((3-(4-propiolamidobut-1-yn-1-yl)phenyl)amino)-5-((tetrahydro-2H-pyran-4-yl)amino)pyrazine-2-carboxamide] | 10 to 100 | > 500 | 10 to 100
9 | CC#CC(=O)NCCC#Cc1cccc(Nc2nc(NC3CCOCC3)c(CC)nc2C(N)=O)c1 [Compound 16, 3-((3-(4-(But-2-ynamido)but-1-yn-1-yl)phenyl)amino)-6-ethyl-5-((tetrahydro-2H-pyran-4-yl)amino)pyrazine-2-carboxamide] | 100 to 500 | > 500 | 100 to 500
10 | C=CC(=O)N(C)[C@@H](C)C(=O)NCC#Cc1cccc(Nc2nc(NC3CCOCC3)c(CC)nc2C(N)=O)c1 [Compound 17, (S)-6-Ethyl-3-((3-(3-(2-(N-methylacrylamido)propanamido)prop-1-yn-1-yl)phenyl)amino)-5-((tetrahydro-2H-pyran-4-yl)amino)pyrazine-2-carboxamide] | < 1 | > 500 | 1 to 10
11 | CCc1nc(C(N)=O)c(Nc2cccc(C#CCNC(=O)[C@H](C)N(C)C(=O)/C=C/CN(C)C)c2)nc1NC1CCOCC1 [Compound 18, (S,E)-3-((3-(3-(2-(4-(Dimethylamino)-N-methylbut-2-enamido)propanamido)prop-1-yn-1-yl)phenyl)amino)-6-ethyl-5-((tetrahydro-2H-pyran-4-yl)amino)pyrazine-2-carboxamide] | < 1 | > 500 | 1 to 10
12 | C=CS(=O)(=O)N(C)[C@@H](C)C(=O)NCC#Cc1cccc(Nc2nc(NC3CCOCC3)c(CC)nc2C(N)=O)c1 [Compound 19, (S)-6-Ethyl-3-((3-(3-(2-(N-methylvinylsulfonamido)propanamido)prop-1-yn-1-yl)phenyl)amino)-5-((tetrahydro-2H-pyran-4-yl)amino)pyrazine-2-carboxamide] | > 500 | > 500 | > 500
13 | CCc1nc(C(N)=O)c(Nc2cncc(CCNC(=O)[C@H](C)N(C)C(=O)/C=C/CN(C)C)c2)nc1C1CC1 [Compound 306, (S,E)-5-cyclopropyl-3-((5-(2-(2-(4-(dimethylamino)-N-methylbut-2-enamido)propanamido)ethyl)pyridin-3-yl)amino)-6-ethylpyrazine-2-carboxamide] |  | > 500 | 
14 | CCc1nc(C(N)=O)c(Nc2cccc(CCNC(=O)[C@H](C)N(C)C(=O)/C=C/CNC)c2)nc1N(C)C(C)C [Compound 307, (S,E)-6-ethyl-5-(isopropyl(methyl)amino)-3-((3-(2-(2-(N-methyl-4-(methylamino)but-2-enamido)propanamido)ethyl)phenyl)amino)pyrazine-2-carboxamide] |  | > 500 | 
15 | Cc1cc(C(N)=O)c(Nc2cncc(CCNC(=O)[C@H](C)N(C)C(=O)/C=C/CN(C)C)c2)nc1C1CC1 [Compound 323, (S,E)-6-cyclopropyl-2-((5-(2-(2-(4-(dimethylamino)-N-methylbut-2 enamido)propanamido)ethyl)pyridin-3-yl)amino)-5-methylnicotinamide] |  | > 500 | 

The remaining lines, values ahead:

Row | IC50 (MV-4-11) [nM] | IC50 (K-562) [nM] | IC50 (MOLM-13) [nM] | Structure (SMILES)
16 | 100 to 500 | > 500 | 100 to 500 | C=CC(=O)NCCCOc1cccc(Nc2nc(NC3CCOCC3)c(CC)nc2C(N)=O)c1 [Compound 3, 3-((3-(3-Acrylamidopropoxy)phenyl)amino)-6-ethyl-5-((tetrahydro-2H-pyran-4-yl)amino)pyrazine-2-carboxamide]
17 | 100 to 500 | > 500 | 100 to 500 | C=CS(=O)(=O)NCCCOc1cccc(Nc2nc(NC3CCOCC3)c(CC)nc2C(N)=O)c1 [Compound 4, 6-Ethyl-5-((tetrahydro-2H-pyran-4-yl)amino)-3-((3-(3-(vinylsulfonamido)propoxy)phenyl)-amino)pyrazine-2-carboxamide]
18 | 10 to 100 | 100 to 500 | 1 to 10 | C#CC(=O)NCCCOc1cccc(Nc2nc(NC3CCOCC3)c(CC)nc2C(N)=O)c1 [Compound 7, 6-Ethyl-3-((3-(3-propiolamidopropoxy)phenyl)amino)-5-((tetrahydro-2H-pyran-4-yl)amino)pyrazine-2-carboxamide]
19 | > 500 | > 500 | 100 to 500 | CC#CC(=O)NCCCOc1cccc(Nc2nc(NC3CCOCC3)c(CC)nc2C(N)=O)c1 [Compound 8, 3-((3-(3-(But-2-ynamido)propoxy)phenyl)amino)-6-ethyl-5-((tetrahydro-2H-pyran-4-yl)amino)pyrazine-2-carboxamide]
20 | 10 to 100 | > 500 | 10 to 100 | C=CC(=O)NCC#Cc1cccc(Nc2nc(NC3CCOCC3)c(CC)nc2C(N)=O)c1 [Compound 9, 3-((3-(3-Acrylamidoprop-1-yn-1-yl)phenyl)amino)-6-ethyl-5-((tetrahydro-2H-pyran-4-yl)amino)pyrazine-2-carboxamide]
21 | 100 to 500 | > 500 | 100 to 500 | C=CS(=O)(=O)NCC#Cc1cccc(Nc2nc(NC3CCOCC3)c(CC)nc2C(N)=O)c1 [Compound 10, 6-Ethyl-5-((tetrahydro-2H-pyran-4-yl)amino)-3-((3-(3-(vinylsulfonamido)prop-1-yn-1-yl)phenyl)amino)pyrazine-2-carboxamide]
22 | 10 to 100 | 100 to 500 | 10 to 100 | C#CC(=O)NCC#Cc1cccc(Nc2nc(NC3CCOCC3)c(CC)nc2C(N)=O)c1 [Compound 13, 6-Ethyl-3-((3-(3-propiolamidoprop-1-yn-1-yl)phenyl)amino)-5-((tetrahydro-2H-pyran-4-yl)amino)pyrazine-2-carboxamide]
